Like-named read-outs stand apart in the source and are kept apart here.
What was measured:
[1] = molecular target: T1, human GLP-1 receptor (hGLP-1R) (Homo sapiens, UniProt P43220); assay: [125I]-GLP-1 binding, SPA with membranes of HEK293 cells expressing hGLP-1R
T1 construct: expressed in transfected cells; crude membranes

[2] = molecular target: T2, human GIP receptor (hGIPR) (Homo sapiens, UniProt P48546); assay: [125I]-GIP binding, SPA with membranes of CHO cells expressing hGIPR
T2 construct: expressed in transfected cells; crude membranes
T2 sequence (P48546 22-466): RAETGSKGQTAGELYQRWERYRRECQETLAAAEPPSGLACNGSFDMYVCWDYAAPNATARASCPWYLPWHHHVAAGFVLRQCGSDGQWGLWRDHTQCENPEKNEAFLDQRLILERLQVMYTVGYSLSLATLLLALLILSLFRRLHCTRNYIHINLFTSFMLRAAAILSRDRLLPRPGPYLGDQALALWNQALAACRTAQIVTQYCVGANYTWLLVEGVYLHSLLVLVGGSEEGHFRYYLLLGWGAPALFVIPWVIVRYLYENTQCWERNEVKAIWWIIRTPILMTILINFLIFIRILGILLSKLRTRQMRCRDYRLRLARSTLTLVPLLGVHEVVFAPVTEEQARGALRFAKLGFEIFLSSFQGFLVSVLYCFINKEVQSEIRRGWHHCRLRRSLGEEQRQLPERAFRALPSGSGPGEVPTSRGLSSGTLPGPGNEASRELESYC

[3] = molecular target: T3, hGIPR (Homo sapiens, UniProt P48546); assay: Functional cAMP formation (HTRF) in HEK-293 clonal cells expressing hGIPR, 0.1% bovine casein, without or with 1.0% human serum albumin; format: cell-based; conditions: for EC50: geometric mean
T3 construct: expressed in transfected cells
T3 sequence (P48546 22-466): T2 sequence (P48546 22-466)
In short: (§1)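 Readings of the HTRF 665/620 nm ratio, which falls as cAMP rises, were converted to nM cAMP using a standard curve after 30 min peptide exposure at 37° C.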

[4] = molecular target: T4, hGCGR (Homo sapiens, UniProt P47871); assay: Functional cAMP formation (HTRF) in HEK-293 clonal cells expressing hGCGR, 0.1% bovine casein, without or with 1.0% human serum albumin; format: cell-based
T4 construct: expressed in transfected cells
In short: as §1

[5] = molecular target: hGLP-1R (Homo sapiens, UniProt P43220); assay: Functional cAMP formation (HTRF) in HEK-293 clonal cells expressing hGLP-1R, 0.1% bovine casein, without or with 1.0% human serum albumin; format: cell-based; design: expressed in transfected cells; conditions: for EC50: geometric mean
In short: as §1

[6] = human GLP-1R, geometric mean (SEM, n), read-out: Binding Affinity Ki, nM (SEM, n) hGLP-1R
[7] = human GIPR, geometric mean (SEM, n), read-out: Binding Affinity Ki, nM (SEM, n) hGIPR
[8] = 0.1% bovine casein and 1.0% human serum albumin, 37° C., read-out: hGIPR EC50, nM (SEM, n)
[9] = HEK293, 0.1% bovine casein and 1.0% human serum albumin, 37° C., percent of maximal response to GIP(1-42)NH2, read-out: hGIPR Emax, % ± SEM
[10] = HEK293, percent of maximal response to GIP(1-42)NH2, 37° C., 0.1% bovine casein, arithmetic mean, read-out: hGIPR Emax, % ± SEM
[11] = cAMP, incubated at 37° C., 0.1% bovine casein (no human serum albumin), read-out: hGIPR EC50, nM (SEM, n)
[12] = 0.1% bovine casein and 1.0% human serum albumin, 37° C., geometric mean, read-out: hGCGR EC50, nM (SEM, n)
[13] = cAMP, incubated at 37° C., 0.1% bovine casein (no human serum albumin), geometric mean, read-out: hGCGR EC50, nM (SEM, n)

Sequence of hGLP-1R (P43220 24-463): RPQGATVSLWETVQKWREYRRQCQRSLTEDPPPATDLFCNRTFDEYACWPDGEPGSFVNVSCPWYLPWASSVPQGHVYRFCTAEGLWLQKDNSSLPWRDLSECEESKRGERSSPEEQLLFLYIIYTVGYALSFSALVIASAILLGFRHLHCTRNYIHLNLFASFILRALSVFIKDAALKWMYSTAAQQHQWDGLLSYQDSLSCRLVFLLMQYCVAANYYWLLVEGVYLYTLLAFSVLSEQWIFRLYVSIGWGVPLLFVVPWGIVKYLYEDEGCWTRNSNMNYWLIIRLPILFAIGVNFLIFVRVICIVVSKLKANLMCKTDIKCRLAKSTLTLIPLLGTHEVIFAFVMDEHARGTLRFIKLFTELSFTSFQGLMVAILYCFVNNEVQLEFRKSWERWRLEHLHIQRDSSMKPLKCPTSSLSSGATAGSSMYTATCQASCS
T4 sequence (P47871 26-477): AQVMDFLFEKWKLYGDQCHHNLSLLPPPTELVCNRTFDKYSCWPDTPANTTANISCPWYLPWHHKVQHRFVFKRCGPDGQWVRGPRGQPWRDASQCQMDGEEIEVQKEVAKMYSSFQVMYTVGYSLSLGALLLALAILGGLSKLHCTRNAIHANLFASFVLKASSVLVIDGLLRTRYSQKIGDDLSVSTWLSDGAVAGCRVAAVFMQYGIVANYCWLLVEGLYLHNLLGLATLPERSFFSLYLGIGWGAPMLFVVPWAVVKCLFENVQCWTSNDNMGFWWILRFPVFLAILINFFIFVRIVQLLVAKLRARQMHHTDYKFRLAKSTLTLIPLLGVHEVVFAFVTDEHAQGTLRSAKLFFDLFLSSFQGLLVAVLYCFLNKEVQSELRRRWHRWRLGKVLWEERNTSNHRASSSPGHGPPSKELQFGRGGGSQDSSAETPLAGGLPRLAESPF

Compound | Ki [1, 6] [nM] | Ki [2, 7] [nM] | EC50 [3, 8] [nM] | Emax [3, 9] [%] | Emax [3, 10] [%] | EC50 [3, 11] [nM] | EC50 [4, 12] [nM] | EC50 [4, 13] [nM] | Ki [2] [nM] | other results
CC[C@H](C)[C@H](NC(=O)[C@H](CC(C)C)NC(=O)[C@](C)(Cc1ccc(O)cc1)NC(=O)[C@@H](CCC(=O)O)NC(=O)[C@@H](NC(=O)[C@H](Cc1ccccc1)NC(=O)[C@H](CCC(=O)O)NC(=O)C(C)(C)NC(=O)[C@H](CCC(N)=O)NC(=O)[C@H](C)NC(=O)[C@H](CCCCNC(=O)COCCOCCNC(=O)COCCOCCNC(=O)CC[C@H](NC(=O)CCCc1ccc(I)cc1)C(=O)O)NC(=O)[C@H](CCCN)NC(=O)[C@H](CC(=O)O)NC(=O)[C@H](CC(C)C)NC(=O)[C@](C)(CC(C)C)NC(=O)[C@@H](NC(=O)[C@H](CO)NC(=O)[C@H](Cc1ccncc1)NC(=O)[C@H](CC(=O)O)NC(=O)[C@H](CO)NC(=O)[C@@H](NC(=O)[C@](C)(Cc1ccccc1F)NC(=O)[C@@H](NC(=O)CNC(=O)[C@H](CCC(=O)O)NC(=O)C(C)(C)NC(=O)[C@@H](N)Cc1ccc(O)cc1)[C@@H](C)O)[C@@H](C)O)[C@@H](C)CC)[C@@H](C)CC)C(=O)N[C@@H](CCC(=O)O)C(=O)NCC(=O)NCC(=O)N[C@@H](CCCCNC(=O)COCCOCCNC(=O)COCCOCCNC(=O)CC[C@H](NC(=O)CCCc1ccc(I)cc1)C(=O)O)C(=O)N[C@@H](CO)C(=O)N[C@@H](CO)C(=O)NCC(=O)N[C@@H](C)C(=O)N1CCC[C@H]1C(=O)N1CCC[C@H]1C(=O)N1CCC[C@H]1C(=O)N[C@@H](CO)C(N)=O [Example 3] | 0.471 | 0.0629 | 0.0971 | 80 | 95.9 ± 2.95 | 0.0133 | > 9950 | > 9950 |  | EC50 ([5]; 0.1% bovine casein and 1.0% human serum albumin, 37° C., read-out: hGLP-1R EC50, nM (SEM, n)): 1.05 nM; EC50 ([5]; cAMP, incubated at 37° C., 0.1% bovine casein (no human serum albumin), read-out: hGLP-1R EC50, nM (SEM, n)): 0.223 nM
CC[C@H](C)[C@H](NC(=O)[C@H](CC(C)C)NC(=O)[C@](C)(Cc1ccc(O)cc1)NC(=O)[C@@H](CCC(=O)O)NC(=O)[C@@H](NC(=O)[C@H](Cc1ccccc1)NC(=O)[C@H](CCC(=O)O)NC(=O)C(C)(C)NC(=O)[C@H](CCC(N)=O)NC(=O)[C@H](C)NC(=O)[C@H](CCCCNC(=O)COCCOCCNC(=O)COCCOCCNC(=O)CC[C@H](NC(=O)CCCc1ccc(C(C)(C)C)cc1)C(=O)O)NC(=O)[C@H](CCCN)NC(=O)[C@H](CC(=O)O)NC(=O)[C@H](CC(C)C)NC(=O)[C@](C)(CC(C)C)NC(=O)[C@@H](NC(=O)[C@H](CO)NC(=O)[C@H](Cc1ccncc1)NC(=O)[C@H](CC(=O)O)NC(=O)[C@H](CO)NC(=O)[C@@H](NC(=O)[C@](C)(Cc1ccccc1F)NC(=O)[C@@H](NC(=O)CNC(=O)[C@H](CCC(=O)O)NC(=O)C(C)(C)NC(=O)[C@@H](N)Cc1ccc(O)cc1)[C@@H](C)O)[C@@H](C)O)[C@@H](C)CC)[C@@H](C)CC)C(=O)N[C@@H](CCC(=O)O)C(=O)NCC(=O)NCC(=O)N[C@@H](CCCCNC(=O)COCCOCCNC(=O)COCCOCCNC(=O)CC[C@H](NC(=O)CCCc1ccc(C(C)(C)C)cc1)C(=O)O)C(=O)N[C@@H](CO)C(=O)N[C@@H](CO)C(=O)NCC(=O)N[C@@H](C)C(=O)N1CCC[C@H]1C(=O)N1CCC[C@H]1C(=O)N1CCC[C@H]1C(=O)N[C@@H](CO)C(N)=O [Example 4] |  |  |  |  |  |  |  |  | 0.0528 | Ki [1]: 0.413 nM; Emax ([3]; HEK293, read-out: hGIPR Emax, % ± SEM, 0.1% bovine casein and 1.0% human serum albumin, 37° C., percent of maximal response to GIP(1-42)NH2): 88.3 ± 2.17%; Emax ([3]; HEK293, read-out: hGIPR Emax, % ± SEM, percent of maximal response to GIP(1-42)NH2, 37° C., 0.1% bovine casein, arithmetic mean): 92.9 ± 0.381%; EC50 ([3]; hGIPR EC50, nM (SEM, n), 0.1% bovine casein and 1.0% human serum albumin, 37° C.): 0.0296 nM; EC50 ([4]; hGCGR EC50, nM (SEM, n), 0.1% bovine casein and 1.0% human serum albumin, 37° C., geometric mean): > 9950 nM; EC50 ([4]; hGCGR EC50, nM (SEM, n), cAMP, incubated at 37° C., 0.1% bovine casein (no human serum albumin), geometric mean): > 9950 nM; EC50 ([5]; hGLP-1R EC50, nM (SEM, n), 0.1% bovine casein and 1.0% human serum albumin, 37° C.): 0.584 nM; EC50 ([5]; hGLP-1R EC50, nM (SEM, n), cAMP, incubated at 37° C., 0.1% bovine casein (no human serum albumin)): 0.137 nM
CC[C@H](C)[C@H](NC(=O)[C@H](CC(C)C)NC(=O)[C@](C)(Cc1ccc(O)cc1)NC(=O)[C@@H](CCC(=O)O)NC(=O)[C@@H](NC(=O)[C@H](Cc1ccccc1)NC(=O)[C@H](CCC(=O)O)NC(=O)C(C)(C)NC(=O)[C@H](CCC(N)=O)NC(=O)[C@H](C)NC(=O)[C@H](CCCCNC(=O)COCCOCCNC(=O)COCCOCCNC(=O)CC[C@H](NC(=O)CCCCCCCCCCCCC(=O)O)C(=O)O)NC(=O)[C@H](CCCN)NC(=O)[C@H](CC(=O)O)NC(=O)[C@H](CC(C)C)NC(=O)[C@](C)(CC(C)C)NC(=O)[C@@H](NC(=O)C(C)(C)NC(=O)[C@H](Cc1ccc(O)cc1)NC(=O)[C@H](CC(=O)O)NC(=O)[C@H](CO)NC(=O)[C@@H](NC(=O)[C@](C)(Cc1ccccc1F)NC(=O)[C@@H](NC(=O)CNC(=O)[C@H](CCC(=O)O)NC(=O)C(C)(C)NC(=O)[C@@H](N)Cc1ccc(O)cc1)[C@@H](C)O)[C@@H](C)O)[C@@H](C)CC)[C@@H](C)CC)C(=O)N[C@@H](CCC(=O)O)C(=O)NCC(=O)NCC(=O)N[C@@H](CCCCNC(=O)COCCOCCNC(=O)COCCOCCNC(=O)CC[C@H](NC(=O)CCCCCCCCCCCCC(=O)O)C(=O)O)C(=O)N[C@@H](CO)C(=O)N[C@@H](CO)C(=O)NCC(=O)N[C@@H](C)C(=O)N1CCC[C@H]1C(=O)N1CCC[C@H]1C(=O)N1CCC[C@H]1C(=O)N[C@@H](CO)C(N)=O [Example 50] | 0.876 | 0.0296 | 1.81 | 91.4 ± 4.2 | 94.7 ± 1.77 | 0.0168 | > 9950 | > 9950 |  | 
CC[C@H](C)[C@H](NC(=O)[C@H](CC(C)C)NC(=O)[C@](C)(Cc1ccc(O)cc1)NC(=O)[C@H](CCCCNC(=O)COCCOCCNC(=O)COCCOCCNC(=O)CC[C@H](NC(=O)CCCCCCCCCOc1ccc(C(=O)O)cc1)C(=O)O)NC(=O)[C@@H](NC(=O)[C@H](Cc1ccccc1)NC(=O)[C@H](CCCN)NC(=O)C(C)(C)NC(=O)[C@H](CCC(N)=O)NC(=O)[C@H](C)NC(=O)[C@H](CCC(N)=O)NC(=O)[C@H](CCCN)NC(=O)[C@H](CC(=O)O)NC(=O)[C@H](CC(C)C)NC(=O)[C@](C)(CC(C)C)NC(=O)[C@@H](NC(=O)C(C)(C)NC(=O)[C@H](Cc1ccc(O)cc1)NC(=O)[C@H](CC(=O)O)NC(=O)[C@H](CO)NC(=O)[C@@H](NC(=O)[C@](C)(Cc1ccccc1F)NC(=O)[C@@H](NC(=O)CNC(=O)[C@H](CCC(=O)O)NC(=O)C(C)(C)NC(=O)[C@@H](N)Cc1ccc(O)cc1)[C@@H](C)O)[C@@H](C)O)[C@@H](C)CC)[C@@H](C)CC)C(=O)N[C@@H](CCCCNC(=O)COCCOCCNC(=O)COCCOCCNC(=O)CC[C@H](NC(=O)CCCCCCCCCOc1ccc(C(=O)O)cc1)C(=O)O)C(=O)NCC(=O)NCC(=O)N1CCC[C@H]1C(=O)N[C@@H](CO)C(=O)N[C@@H](CO)C(=O)NCC(=O)N[C@@H](C)C(=O)N1CCC[C@H]1C(=O)N1CCC[C@H]1C(=O)N1CCC[C@H]1C(=O)N[C@@H](CO)C(N)=O [Example 492] |  |  |  |  |  |  |  |  | 0.0264 | Emax ([3]; HEK293, read-out: hGIPR Emax, % ± SEM, cAMP, 37° C., 0.1% bovine casein and 1.0% human serum albumin, percent of maximal response to GIP(1-42)NH2): 88.7%; EC50 ([3]; hGIPR EC50, nM (SEM, n), cAMP, 37° C., 0.1% bovine casein (no human serum albumin)): 0.0125 nM; EC50 ([4]; hGCGR EC50, nM (SEM, n), cAMP, 37° C., 0.1% bovine casein (no human serum albumin), geometric mean): > 9950 nM; EC50 ([4]; hGCGR EC50, nM (SEM, n), cAMP, 37° C., 0.1% bovine casein and 1.0% human serum albumin, geometric mean (SEM, n)): > 9950 nM; Emax ([5]; HEK293, read-out: hGLP-1R Emax, % ± SEM, cAMP, 37° C., 0.1% bovine casein, percent of maximal response to GLP-1(7-36)NH2, arithmetic mean): 117%; EC50 ([5]; hGLP-1R EC50, nM (SEM, n), cAMP, 37° C., 0.1% bovine casein (no human serum albumin)): 0.143 nM

— patent US20230265151A1, “GIP/GLP1 CO-AGONIST COMPOUNDS” (priority 2020, published 2023)
